Converted amounts (≈) assume the structure as drawn.
Columns and labels:
Type in all cases: cell-based
[1] = test system: Klebsiella pneumoniae 3699; assay: Antibacterial MIC, agar-dilution or broth-dilution microtiter test; details: Strain K: Klebsiella pneumoniae 3699
Procedure: (§1) The MIC's in Table I and Table II were determined by standard agar-dilution assays or broth-dilution microtiter test.

[2] = test system: Staphylococcus aureus 5-1; assay: as above; details: 51; Strain G: Staphylococcus aureus 5-1
Procedure: as §1

Pasteurella 8217 = assay: as above; details: Strain C: Pasteurella 8217
Procedure: as §1

salmonella LD4-8 = assay: as above; details: LD48; Strain I: salmonella LD4-8
Procedure: as §1

[3] = test system: Staphylococcus aureus 29213 (QC strain); assay: as above; details: Strain H: Staphylococcus aureus 29213 (QC strain)
Procedure: as §1

[4] = test system: Escherichia coli 25922 (QC strain); assay: as above; details: Strain F: Escherichia coli 25922 (QC strain)
Procedure: as §1

[5] = test system: Actinobacillus pleuropneumoniae serotype 1; assay: as above; details: Strain A: Actinobacillus pleuropneumoniae serotype 1
Procedure: as §1

[6] = test system: Streptococcus pneumoniae 49619 (QC strain); assay: as above; details: Strain M: Streptococcus pneumoniae 49619 (QC strain)
Procedure: as §1

Pasteurella 8229 = assay: as above; details: Strain D: Pasteurella 8229
Procedure: as §1

[7] = test system: Klebsiella pneumoniae 3753; assay: as above; details: Strain J: Klebsiella pneumoniae 3753
Procedure: as §1

[8] = test system: Actinobacillus pleuropneumoniae serotype 7; assay: as above; details: Strain B: Actinobacillus pleuropneumoniae serotype 7
Procedure: as §1

[9] = test system: Streptococcus pneumoniae 2349; assay: as above; details: Strain L: Streptococcus pneumoniae 2349
Procedure: as §1

Escherichia coli IN-F6-7 = assay: as above; details: INF67; Strain E: Escherichia coli IN-F6-7
Procedure: as §1

M. hyorinis BTS-7 = assay: Mycoplasma susceptibility testing (MIC)
Procedure: as §1

M. gallisepticum BG44T = assay: Mycoplasma susceptibility testing (MIC); details: Mycoplasmoides gallisepticum
Procedure: as §1

M. gallisepticum S6 = assay: Mycoplasma susceptibility testing (MIC); details: Mycoplasmoides gallisepticum
Procedure: as §1

Structure (SMILES) | MIC [1] | MIC [2] | MIC (Pasteurella 8217) | MIC (salmonella LD4-8) | MIC [3] | MIC [4] | MIC [5] | MIC [6] | MIC (Pasteurella 8229) | MIC [7] | MIC [8] | MIC [9] | MIC (Escherichia coli IN-F6-7) | MIC (M. hyorinis BTS-7) | MIC (M. gallisepticum BG44T) | MIC (M. gallisepticum S6)
CC[C@H]1OC(=O)C[C@@H](O)[C@H](C)[C@@H](O[C@@H]2O[C@H](C)[C@@H](O)[C@H](N(C)C)[C@H]2O)[C@@H](CCN2CCCCC2)C[C@@H](C)C(=O)/C=C/C(C)=C/[C@@H]1CN(CC)CC [Compound 4a, (4R,5S,6S,7R,9R,11E,13E,15R,16R)-15-((diethylamino)methyl)-6-(((2R,3R,4S,5S,6R)-4-(dimethylamino)-3,5-dihydroxy-6-methyltetrahydro-2H-pyran-2-yl)oxy)-16-ethyl-4-hydroxy-5,9,13-trimethyl-7-(2-(piperidin-1-yl)ethyl)oxacyclohexadeca-11,13-diene-2,10-dione] | > 256 µg/mL | > 256 µg/mL | 0.5 µg/mL (≈ 0.693 µM) | 4 µg/mL (≈ 5.54 µM) | 4 µg/mL (≈ 5.54 µM) | 4 µg/mL (≈ 5.54 µM) | 32 µg/mL (≈ 44.3 µM) | 8 µg/mL (≈ 11.1 µM) | 0.5 µg/mL (≈ 0.693 µM) | 32 µg/mL (≈ 44.3 µM) | 32 µg/mL (≈ 44.3 µM) | 0.5 µg/mL (≈ 0.693 µM) | 8 µg/mL (≈ 11.1 µM) | 62.5 µg/mL (≈ 86.6 µM) | < 0.12 µg/mL | < 0.12 µg/mL
CCCN(CCC)C[C@H]1/C=C(C)/C=C/C(=O)[C@H](C)C[C@H](CCN2CCCCC2)[C@H](O[C@@H]2O[C@H](C)[C@@H](O)[C@H](N(C)C)[C@H]2O)[C@@H](C)[C@H](O)CC(=O)O[C@@H]1CC [Compound 4b, (4R,5S,6S,7R,9R,11E,13E,15R,16R)-6-(((2R,3R,4S,5S,6R)-4-(dimethylamino)-3,5-dihydroxy-6-methyltetrahydro-2H-pyran-2-yl)oxy)-15-((dipropylamino)methyl)-16-ethyl-4-hydroxy-5,9,13-trimethyl-7-(2-(piperidin-1-yl)ethyl)oxacyclohexadeca-11,13-diene-2,10-dione] | > 256 µg/mL | > 256 µg/mL | 1 µg/mL (≈ 1.33 µM) | 8 µg/mL (≈ 10.7 µM) | 16 µg/mL (≈ 21.3 µM) | 4 µg/mL (≈ 5.33 µM) | 32 µg/mL (≈ 42.7 µM) | 16 µg/mL (≈ 21.3 µM) | 0.25 µg/mL (≈ 0.333 µM) | 32 µg/mL (≈ 42.7 µM) | 32 µg/mL (≈ 42.7 µM) | 1 µg/mL (≈ 1.33 µM) | 8 µg/mL (≈ 10.7 µM) | 15.6 µg/mL (≈ 20.8 µM) | < 0.12 µg/mL | 0.49 µg/mL (≈ 0.653 µM)
CCCCNC[C@H]1/C=C(C)/C=C/C(=O)[C@H](C)C[C@H](CCN2CCCCC2)[C@H](O[C@@H]2O[C@H](C)[C@@H](O)[C@H](N(C)C)[C@H]2O)[C@@H](C)[C@H](O)CC(=O)O[C@@H]1CC [Compound 4c, (4R,5S,6S,7R,9R,11E,13E,15R,16R)-15-((butylamino)methyl)-6-(((2R,3R,4S,5S,6R)-4-(dimethylamino)-3,5-dihydroxy-6-methyltetrahydro-2H-pyran-2-yl)oxy)-16-ethyl-4-hydroxy-5,9,13-trimethyl-7-(2-(piperidin-1-yl)ethyl)oxacyclohexadeca-11,13-diene-2,10-dione] | > 256 µg/mL | > 256 µg/mL | 4 µg/mL (≈ 5.54 µM) | 32 µg/mL (≈ 44.3 µM) | 64 µg/mL (≈ 88.6 µM) | 16 µg/mL (≈ 22.2 µM) | 64 µg/mL (≈ 88.6 µM) | 256 µg/mL (≈ 355 µM) | 4 µg/mL (≈ 5.54 µM) | 128 µg/mL (≈ 177 µM) | 128 µg/mL (≈ 177 µM) | 2 µg/mL (≈ 2.77 µM) | 16 µg/mL (≈ 22.2 µM) | 31.2 µg/mL (≈ 43.3 µM) | 7.82 µg/mL (≈ 10.8 µM) | 15.6 µg/mL (≈ 21.6 µM)
CC[C@H]1OC(=O)C[C@@H](O)[C@H](C)[C@@H](O[C@@H]2O[C@H](C)[C@@H](O)[C@H](N(C)C)[C@H]2O)[C@@H](CCN2CCCCC2)C[C@@H](C)C(=O)/C=C/C(C)=C/[C@@H]1CN(C)Cc1ccccc1 [Compound 4f, (4R,5S,6S,7R,9R,11E,13E,15R,16R)-15-((benzyl(methyl)amino)methyl)-6-(((2R,3R,4S,5S,6R)-4-(dimethylamino)-3,5-dihydroxy-6-methyltetrahydro-2H-pyran-2-yl)oxy)-16-ethyl-4-hydroxy-5,9,13-trimethyl-7-(2-(piperidin-1-yl)ethyl)oxacyclohexadeca-11,13-diene-2,10-dione] | > 256 µg/mL | 128 µg/mL (≈ 166 µM) | < 0.12 µg/mL | 4 µg/mL (≈ 5.19 µM) | 2 µg/mL (≈ 2.6 µM) | 4 µg/mL (≈ 5.19 µM) | 16 µg/mL (≈ 20.8 µM) | 0.5 µg/mL (≈ 0.649 µM) | 0.12 µg/mL (≈ 0.156 µM) | 32 µg/mL (≈ 41.6 µM) | 64 µg/mL (≈ 83.1 µM) | < 0.12 µg/mL | 4 µg/mL (≈ 5.19 µM) | 0.98 µg/mL (≈ 1.27 µM) | < 0.12 µg/mL | 0.24 µg/mL (≈ 0.312 µM)
CC[C@H]1OC(=O)C[C@@H](O)[C@H](C)[C@@H](O[C@@H]2O[C@H](C)[C@@H](O)[C@H](N(C)C)[C@H]2O)[C@@H](CCN2CCCCC2)C[C@@H](C)C(=O)/C=C/C(C)=C/[C@@H]1CN(CCO)CCO [Compound 4g, (4R,5S,6S,7R,9R,11E,13E,15R,16R)-15-((bis(2-hydroxyethyl)amino)methyl)-6-(((2R,3R,4S,5S,6R)-4-(dimethylamino)-3,5-dihydroxy-6-methyltetrahydro-2H-pyran-2-yl)oxy)-16-ethyl-4-hydroxy-5,9,13-trimethyl-7-(2-(piperidin-1-yl)ethyl)oxacyclohexadeca-11,13-diene-2,10-dione] | > 256 µg/mL | > 256 µg/mL | < 0.12 µg/mL | 128 µg/mL (≈ 170 µM) | 128 µg/mL (≈ 170 µM) | 256 µg/mL (≈ 340 µM) | 256 µg/mL (≈ 340 µM) | > 256 µg/mL | 32 µg/mL (≈ 42.4 µM) | > 256 µg/mL | 256 µg/mL (≈ 340 µM) | 32 µg/mL (≈ 42.4 µM) | 256 µg/mL (≈ 340 µM) | – | – | –
CC[C@H]1OC(=O)C[C@@H](O)[C@H](C)[C@@H](O[C@@H]2O[C@H](C)[C@@H](O)[C@H](N(C)C)[C@H]2O)[C@@H](CCN2CCCCC2)C[C@@H](C)C(=O)/C=C/C(C)=C/[C@@H]1CNC1CCCCC1 [Compound 4h, (4R,5S,6S,7R,9R,11E,13E,15R,16R)-15-((cyclohexylamino)methyl)-6-(((2R,3R,4S,5S,6R)-4-(dimethylamino)-3,5-dihydroxy-6-methyltetrahydro-2H-pyran-2-yl)oxy)-16-ethyl-4-hydroxy-5,9,13-trimethyl-7-(2-(piperidin-1-yl)ethyl)oxacyclohexadeca-11,13-diene-2,10-dione] | > 256 µg/mL | 256 µg/mL (≈ 342 µM) | 16 µg/mL (≈ 21.4 µM) | 32 µg/mL (≈ 42.8 µM) | 64 µg/mL (≈ 85.6 µM) | 16 µg/mL (≈ 21.4 µM) | 64 µg/mL (≈ 85.6 µM) | 32 µg/mL (≈ 42.8 µM) | 2 µg/mL (≈ 2.67 µM) | 128 µg/mL (≈ 171 µM) | 64 µg/mL (≈ 85.6 µM) | 2 µg/mL (≈ 2.67 µM) | 16 µg/mL (≈ 21.4 µM) | – | – | –
CC[C@H]1OC(=O)C[C@@H](O)[C@H](C)[C@@H](O[C@@H]2O[C@H](C)[C@@H](O)[C@H](N(C)C)[C@H]2O)[C@@H](CCN2C[C@H](C)C[C@H](C)C2)C[C@@H](C)C(=O)/C=C/C(C)=C/[C@@H]1CO[C@@H]1O[C@H](C)[C@@H](O)[C@@H](OC)[C@H]1OC [Tilmicosin, reference compound] | > 256 µg/mL | > 256 µg/mL | 8 µg/mL (≈ 9.2 µM) | 32 µg/mL (≈ 36.8 µM) | 0.5 µg/mL (≈ 0.575 µM) | 8 µg/mL (≈ 9.2 µM) | 32 µg/mL (≈ 36.8 µM) | 8 µg/mL (≈ 9.2 µM) | 0.5 µg/mL (≈ 0.575 µM) | 64 µg/mL (≈ 73.6 µM) | 32 µg/mL (≈ 36.8 µM) | 0.5 µg/mL (≈ 0.575 µM) | 16 µg/mL (≈ 18.4 µM) | 3.91 µg/mL (≈ 4.5 µM) | < 0.12 µg/mL | < 0.12 µg/mL

Reference: US10287275B2, “16-member triamilide derivatives and uses thereof” (VICTOR PHARMA CO., LTD. ZHENJIANG, priority 2015, dated 2019)
